Test results taken from PubChem BioAssay AID192 (DTP/NCI, 2004).
Inconclusive results and toxic doses are left out. Square brackets hold non-standard residues; d marks the D form. Peptide text beside a SMILES is read from it. * marks the point of attachment. ξ: configuration not given here. ξAsp(βξ-Me) = CC(C(=O)O)C(N)C(=O)O; X4 = CC(N*)C1NC(=O)C2CCCCN2C1=O; ξAbu(3ξ-NH2) = CC(N)C(N)C(=O)O; X3 = CCC(C)CCC/C=C/CC(=O)*

System: BDF1 mice, B16 melanoma ip, median survival T/C
Experiment: NCI In Vivo Anticancer Drug Screen. Data for tumor model B16 Melanoma (intraperitoneal) in B6D2F1 (BDF1) mice
Settings: endpoint: median survival time, higher = longer survival
Summary of the method: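 Values are ratios of treated (T) to vehicle-control (C) measurements of survival or tumor size in tumor-bearing mice.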

[1] = dose: 25.0 mg/kg/injection, schedule: Q01DX009 (ip), vehicle: Klucel (hydroxypropylcellulose) (HPC)
[2] = dose: 50.0 mg/kg/injection, schedule: Q01DX009 (ip), vehicle: Klucel (hydroxypropylcellulose) (HPC)
[3] = dose: 100.0 mg/kg/injection, schedule: Q01DX009 (ip), vehicle: Klucel (hydroxypropylcellulose) (HPC)
[4] = dose: 10.0 mg/kg/injection, schedule: Q01DX009 (ip), vehicle: saline with Tween-80
[5] = dose: 200.0 mg/kg/injection, schedule: Q01DX009 (ip), vehicle: Klucel (hydroxypropylcellulose) (HPC)
[6] = dose: 400.0 mg/kg/injection, schedule: Q01DX009 (ip), vehicle: Klucel (hydroxypropylcellulose) (HPC)

## O.O.O=c1[nH]cc(CO)c(=O)[nH]1.[NH2-].[NH2-].[Pt+2]
dose: 3.12 mg/kg/injection, schedule: Q01DX009 (ip), vehicle: Klucel (hydroxypropylcellulose) (HPC)
  T/C: 107 % of control
dose: 6.25 mg/kg/injection, schedule: Q01DX009 (ip), vehicle: Klucel (hydroxypropylcellulose) (HPC)
  T/C: 106 % of control
[1]
  T/C: 185 % of control

## F[B-](F)(F)F
dose: 12.5 mg/kg/injection, schedule: Q01DX009 (ip), vehicle: gum acacia
  T/C: 104 % of control
dose: 25.0 mg/kg/injection, schedule: Q01DX009 (ip), vehicle: gum acacia
  T/C: 114 % of control
dose: 50.0 mg/kg/injection, schedule: Q01DX009 (ip), vehicle: gum acacia
  T/C: 117 % of control
dose: 100.0 mg/kg/injection, schedule: Q01DX009 (ip), vehicle: gum acacia
  T/C: 105 % of control
dose: 200.0 mg/kg/injection, schedule: Q01DX009 (ip), vehicle: gum acacia
  T/C: 107 % of control

## CC(=O)C(C)(NCc1ccccc1)c1ccccc1 (centres undefined)
[2]
  T/C: 86 % of control
[3]
  T/C: 89 % of control

## COC(=O)C(N)CSCc1ccccc1 (centres undefined)
dose: 100.0 mg/kg/injection, schedule: Q01DX009 (ip), vehicle: saline
  T/C: 95 % of control
dose: 200.0 mg/kg/injection, schedule: Q01DX009 (ip), vehicle: saline
  T/C: 106 % of control

## Cc1ccc2ccccc2c1OC(C)C(=O)O (centres undefined)
dose: 25.0 mg/kg/injection, schedule: Q04DX003 (ip), vehicle: alcohol
  T/C: 100 % of control
dose: 50.0 mg/kg/injection, schedule: Q01DX009 (ip), vehicle: alcohol
  T/C: 112 % of control
dose: 50.0 mg/kg/injection, schedule: Q04DX003 (ip), vehicle: alcohol
  T/C: 100 % of control
dose: 100.0 mg/kg/injection, schedule: Q01DX009 (ip), vehicle: alcohol
  T/C: 109 % of control
dose: 100.0 mg/kg/injection, schedule: Q04DX003 (ip), vehicle: alcohol
  T/C: 88 % of control

## NC1=NN(c2ccccc2)CC1
dose: 0.5 mg/kg/injection, schedule: Q04DX003 (ip), vehicle: saline with Tween-80
  T/C: 95 % of control
dose: 5.0 mg/kg/injection, schedule: Q01DX009 (ip), vehicle: saline with Tween-80
  T/C: 104 % of control
[4]
  T/C: 100 % of control
dose: 10.0 mg/kg/injection, schedule: Q04DX003 (ip), vehicle: saline with Tween-80
  T/C: 95 % of control
dose: 20.0 mg/kg/injection, schedule: Q01DX009 (ip), vehicle: saline with Tween-80
  T/C: 100 % of control
dose: 20.0 mg/kg/injection, schedule: Q04DX003 (ip), vehicle: saline with Tween-80
  T/C: 95 % of control

## CCC(C)CCC/C=C/CC(=O)NC(CC(=O)O)C(=O)NC(C(=O)NC(CC(=O)O)C(=O)NCC(=O)NC(CC(=O)O)C(=O)NCC(=O)NC(C(=O)NC(C(=O)N1CCCC1C(=O)NC(C)C1NC(=O)C2CCCCN2C1=O)C(C)C)C(C)N)C(C)C(=O)O (stereo not drawn) (X3-D[ξAsp(βξ-Me)]DGDG[ξAbu(3ξ-NH2)]VP-X4; configuration not given here)
dose: 100.0 mg/kg/injection, schedule: Q01DX009 (ip), vehicle: saline + alcohol
  T/C: 90 % of control
dose: 200.0 mg/kg/injection, schedule: Q01DX009 (ip), vehicle: saline + alcohol
  T/C: 93 % of control

## O=CC(O)C(O)C(O)C(O)C(=O)O.[NH-]C1CCCCC1[NH-].[Pt+2] (centres undefined)
dose: 0.2 mg/kg/injection, schedule: Q01DX009 (ip), vehicle: saline
  T/C: 105 % of control
dose: 1.56 mg/kg/injection, schedule: Q01DX009 (ip), vehicle: saline
  T/C: 162 % of control

## Cc1ccccc1NC(=O)Nc1cccc(C)c1C
dose: 50.0 mg/kg/injection, schedule: Q04DX003 (ip), vehicle: Klucel (hydroxypropylcellulose) (HPC)
  T/C: 90 % of control
dose: 100.0 mg/kg/injection, schedule: Q04DX003 (ip), vehicle: Klucel (hydroxypropylcellulose) (HPC)
  T/C: 96 % of control
dose: 200.0 mg/kg/injection, schedule: Q04DX003 (ip), vehicle: Klucel (hydroxypropylcellulose) (HPC)
  T/C: 93 % of control

## CCCCCCCCC1CCC(N)CC1 (centres undefined)
[2]
  T/C: 93 % of control
[3]
  T/C: 86 % of control

## C[n+]1cccc(NC(=O)c2ccc(NC(=O)C34CCC(C(=O)Nc5ccc(C(=O)Nc6ccc[n+](C)c6)cc5)(CC3)CC4)cc2)c1
[4]
  T/C: 154 % of control

## CN(C)c1ccc(C(=C2C=CC(=[N+](C)C)C=C2)c2ccc(N(C)C)cc2)cc1 (tested in a mixture with another compound)
dose: 0.31 mg/kg/injection, schedule: Q01DX009 (ip), vehicle: saline with Tween-80
  T/C: 123 % of control
dose: 0.62 mg/kg/injection, schedule: Q01DX009 (ip), vehicle: saline with Tween-80
  T/C: 109 % of control
dose: 1.25 mg/kg/injection, schedule: Q01DX009 (ip), vehicle: saline with Tween-80
  T/C: 104 % of control
dose: 2.5 mg/kg/injection, schedule: Q01DX009 (ip), vehicle: saline with Tween-80
  T/C: 116 % of control

## O=C1c2ccccc2CC12OC2c1ccccc1 (centres undefined)
[2]
  T/C: 94 % of control
[3]
  T/C: 90 % of control
[5]
  T/C: 103 % of control
[6]
  T/C: 96 % of control

## CCc1ccccc1NC(=O)Nc1ccc(OC)cc1
[1]
  T/C: 95 % of control
[2]
  T/C: 87 % of control

## O=C(Nc1ccc(C2=NCCN2)cc1)c1ccc(C(=O)Nc2ccc(C3=NCCN3)cc2)c(Cl)c1
dose: 3.12 mg/kg/injection, schedule: Q01DX009 (ip), vehicle: saline with Tween-80
  T/C: 93 % of control
dose: 6.25 mg/kg/injection, schedule: Q01DX009 (ip), vehicle: saline with Tween-80
  T/C: 104 % of control
dose: 8.0 mg/kg/injection, schedule: Q01DX009 (ip), vehicle: saline with Tween-80
  T/C: 104 % of control
dose: 12.5 mg/kg/injection, schedule: Q01DX009 (ip), vehicle: saline with Tween-80
  T/C: 108 % of control
dose: 16.0 mg/kg/injection, schedule: Q01DX009 (ip), vehicle: saline with Tween-80
  T/C: 102 % of control
dose: 25.0 mg/kg/injection, schedule: Q01DX009 (ip), vehicle: saline with Tween-80
  T/C: 105 % of control

## CC(=O)Oc1ccc(N2C(=O)C3C(C2=O)C2c4ccccc4C3C3CCCCN32)cc1 (centres undefined) (tested in a mixture with another compound)
dose: 12.5 mg/kg/injection, schedule: Q01DX009 (ip), vehicle: water
  T/C: 103 % of control
dose: 25.0 mg/kg/injection, schedule: Q01DX009 (ip), vehicle: water
  T/C: 97 % of control
dose: 50.0 mg/kg/injection, schedule: Q01DX009 (ip), vehicle: water
  T/C: 104 % of control
dose: 100.0 mg/kg/injection, schedule: Q01DX009 (ip), vehicle: water
  T/C: 97 % of control

## Cn1c(=O)[nH]c2nncnc2c1=O
dose: 0.37 mg/kg/injection, schedule: Q01DX009 (ip), vehicle: water
  T/C: 99 % of control
dose: 0.75 mg/kg/injection, schedule: Q01DX009 (ip), vehicle: water
  T/C: 118 % of control
dose: 1.5 mg/kg/injection, schedule: Q01DX009 (ip), vehicle: water
  T/C: 103 % of control
dose: 3.0 mg/kg/injection, schedule: Q01DX009 (ip), vehicle: water
  T/C: 99 % of control

## Cc1ccc(NC(=O)c2ccccc2)cc1Cl
[3]
  T/C: 101 % of control
[5]
  T/C: 103 % of control
[6]
  T/C: 101 % of control

## CN1CCC(=C2c3ccccc3C=Cc3ccccc32)CC1
dose: 3.12 mg/kg/injection, schedule: Q01DX009 (ip), vehicle: saline
  T/C: 110 % of control
dose: 6.25 mg/kg/injection, schedule: Q01DX009 (ip), vehicle: saline
  T/C: 102 % of control
dose: 25.0 mg/kg/injection, schedule: Q01DX009 (ip), vehicle: saline
  T/C: 105 % of control
dose: 50.0 mg/kg/injection, schedule: Q01DX009 (ip), vehicle: saline
  T/C: 105 % of control

## O=C(O)C1CCCCC1C(=O)Nc1ccc(Cl)cc1 (centres undefined)
[2]
  T/C: 114 % of control
[3]
  T/C: 105 % of control
[5]
  T/C: 107 % of control

## C1CCC2C[N-]CCC2C1.C1CCC2C[N-]CCC2C1.C1CCC2C[N-]CCC2C1.C1CCC2C[N-]CCC2C1.[Cl][Rh][Cl] (centres undefined)
dose: 0.25 mg/kg/injection, schedule: Q01DX009 (ip), vehicle: saline
  T/C: 100 % of control
dose: 0.5 mg/kg/injection, schedule: Q01DX009 (ip), vehicle: saline with Tween-80
  T/C: 104 % of control
dose: 0.5 mg/kg/injection, schedule: Q01DX009 (ip), vehicle: saline
  T/C: 104 % of control
dose: 1.0 mg/kg/injection, schedule: Q01DX009 (ip), vehicle: saline with Tween-80
  T/C: 95 % of control
dose: 1.0 mg/kg/injection, schedule: Q01DX009 (ip), vehicle: saline
  T/C: 115 % of control
dose: 2.0 mg/kg/injection, schedule: Q01DX009 (ip), vehicle: saline with Tween-80
  T/C: 92 % of control
dose: 2.0 mg/kg/injection, schedule: Q01DX009 (ip), vehicle: saline
  T/C: 123 % of control
dose: 4.0 mg/kg/injection, schedule: Q01DX009 (ip), vehicle: saline with Tween-80
  T/C: 86 % of control
dose: 4.0 mg/kg/injection, schedule: Q01DX009 (ip), vehicle: saline
  T/C: 115 % of control
dose: 8.0 mg/kg/injection, schedule: Q01DX009 (ip), vehicle: saline
  T/C: 110 % of control

## NC(=O)c1ccc(-c2c3ccccc3cc3c2ccc2ccccc23)cc1
dose: 50.0 mg/kg/injection, schedule: Q01DX009 (ip), vehicle: saline with Tween-80
  T/C: 101 % of control
dose: 100.0 mg/kg/injection, schedule: Q01DX009 (ip), vehicle: saline with Tween-80
  T/C: 96 % of control
